# Measured values reported in patent US20230255953A1, “USE OF ROLUPERIDONE IN PREVENTING RELAPSE IN SCHIZOPHRENIA PATIENTS” (Minerva Neurosciences, Inc., priority 2022, published 2023).
# Test system: patients with negative symptoms of schizophrenia
# Test: Study #1 (MIN-101C03) Phase 2b: PANSS-derived scores (PSM, NSFS, total, subscales)
# Format: in vivo, human
# Details: for Change from Baseline LS Mean: 3-Factor General Psychopathology Subscale Score / Change from Baseline LS Mean: 3-Factor Negative Subscale Score / Change from Baseline LS Mean: 3-Factor Positive Subscale Score / Change from Baseline LS Mean: 5-Factor Activation Score (PSM) / Change from Baseline LS Mean: 5-Factor Autistic Preoccupation Score (PSM) / Change from Baseline LS Mean: 5-Factor Dysphoric Mood Score (PSM) / Change from Baseline LS Mean: 5-Factor Positive Score (PSM) / Change from Baseline LS Mean: NSFS (post-hoc) / Change from Baseline LS Mean: PANSS Negative Factor Score (pentagonal structure model) / Change from Baseline LS Mean: PANSS Total Score / Effect Size vs Placebo: 3-Factor General Psychopathology Subscale Score / Effect Size vs Placebo: 3-Factor Negative Subscale Score / Effect Size vs Placebo: 3-Factor Positive Subscale Score / Effect Size vs Placebo: 5-Factor Activation Score (PSM) / Effect Size vs Placebo: 5-Factor Autistic Preoccupation Score (PSM) / Effect Size vs Placebo: 5-Factor Dysphoric Mood Score (PSM) / Effect Size vs Placebo: 5-Factor Positive Score (PSM) / Effect Size vs Placebo: NSFS (post-hoc) / Effect Size vs Placebo: PANSS Negative Factor Score (pentagonal structure model) / Effect Size vs Placebo: PANSS Total Score: ITT
# Description: “PANSS”, as used herein, refers to the positive and negative syndrome scale, which is used by physicians and clinicians to measure the severity of the symptoms in a schizophrenia patient. The scale is divided into three parts, a positive scale, which provides a “PANSS positive subscore”, a negative scale, which provides a “PANSS negative subscore”, and general psychopathology scale. The sum of these three parts provides a PANSS total score, which ranges from 30 to 210 (where higher scores indicate more severe symptoms). (Kay, S. R., et al. “The positive and negative syndrome scale (PANSS) for schizophrenia,” Schizophr Bulletin, 13(2), 261-276 (1987)).
# As used herein, PANSS Marder's negative symptoms factor score (“NSFS”), refers to selection of seven of the PANSS items used by physicians and clinicians to measure the severity of the negative symptoms in a schizophrenia patient. (See Tables 5A and 5B.) The NSFS total score ranges from 7 to 49. (Marder, S. R. et al. “The effects of risperidone on the five dimensions of schizophrenia derived by factor analysis: combined results of the North American trials,” J Clin Psychiatry. 1997; 58:538-46.)
# The PANSS was designed to be used in patients with schizophrenia to measure the overall severity of schizophrenic symptoms. The scale has been validated in different cultures and languages and is reliable and acceptable to regulatory health authorities as a primary scale to determine efficacy of intervention in schizophrenia. The name refers to the 2 types of symptoms in schizophrenia, as defined by the American Psychiatric Association: positive symptoms, which refer to an excess or distortion of normal functions (e.g., hallucinations and delusions), and negative symptoms, which represent a diminution or loss of normal functions.
# The patient is rated from 1 to 7 on 30 different symptoms based on the interview as well as reports of family members or primary care hospital workers. The original PANSS included 3 groups of symptoms and subscale scores Positive, Negative, and General Psychopathology. Since the inception of PANSS, investigators have proposed additional grouping (structures) of PANSS such as the Marder structure (Marder, S. R. et al. “Issues and perspectives in designing clinical trials for negative symptoms in schizophrenia: consensus statements,” Schizophrenia Bulletin Open. 2020; 1(1). doi:10.1093/schizbullopen/sgz001) and the White structure (White, L. et al. “Empirical assessment of the factorial structure of clinical symptoms in schizophrenia”. Psychopathology. 1997; 30263-274).
# The PANSS was assessed at the time points described in Table 4.
# The PANSS-derived endpoints used in these studies and the integrated analyses are described in Table 5A and a summary of the individual PANSS items used by physicians and clinicians to measure the severity of the symptoms in a schizophrenia patient is provided in Table 5B. The scale is divided into three parts, a positive scale, which provides a “PANSS positive subscore”, a negative scale, which provides a “PANSS negative subscore”, and general psychopathology scale. The sum of these three parts provides a PANSS total score, which ranges from 30 to 210 (where higher scores indicate more severe symptoms). (See Kay, S. R., et al. “The positive and negative syndrome scale (PANSS) for schizophrenia,” Schizophr Bulletin, 13(2), 261-276 (1987) and Gopal, S., et al. “Improvement of Negative Symptoms in Schizophrenia with Paliperidone Palmitate 1-Month and 3-Month Long-Acting Injectables: Results from a Phase 3 Non-Inferiority Study” Neuropsychiatric Disease and Treatment, 681-690, DOI: 10.2147/NDT.5226296, both of which are incorporated by reference.) […]
substance,measurement,setting,value
"1H-Isoindol-1-one,2-[ [1-[2-(4-fluorophenyl)-2-oxoethyl]-4-piperidinyl]methyl]-2,3-dihydro-, hydrochloride, hydrate (1:1:2) [Roluperidone]",Effect Size vs Placebo: 20% reduction in NSFS responders,"32 mg QD, Week 12 DB",0.06
same,Effect Size vs Placebo: 30% reduction in NSFS responders,"32 mg QD, Week 12 DB",0
same,Number of Patients with 20% reduction in NSFS at Week 12,"32 mg QD, Week 12 DB",15/51
same,Number of Patients with 30% reduction in NSFS at Week 12,"32 mg QD, Week 12 DB",2/51
same,Patients with 20% reduction in NSFS at Week 12 (%),"32 mg QD, Week 12 DB",(29%)
same,Patients with 30% reduction in NSFS at Week 12 (%),"32 mg QD, Week 12 DB",(4%)
same,Change from Baseline LS Mean: 3-Factor General Psychopathology Subscale Score,"32 mg QD, Week 12 DB",−1.07
same,Change from Baseline LS Mean: 3-Factor Negative Subscale Score,"32 mg QD, Week 12 DB",−3.35
same,Change from Baseline LS Mean: 3-Factor Positive Subscale Score,"32 mg QD, Week 12 DB",0.46
same,Change from Baseline LS Mean: 5-Factor Activation Score (PSM),"32 mg QD, Week 12 DB",−0.05
same,Change from Baseline LS Mean: 5-Factor Autistic Preoccupation Score (PSM),"32 mg QD, Week 12 DB",−0.85
same,Change from Baseline LS Mean: 5-Factor Dysphoric Mood Score (PSM),"32 mg QD, Week 12 DB",−0.32
same,Change from Baseline LS Mean: 5-Factor Positive Score (PSM),"32 mg QD, Week 12 DB",0.58
same,Change from Baseline LS Mean: NSFS (post-hoc),"32 mg QD, Week 12 DB",−3.43
same,Change from Baseline LS Mean: PANSS Negative Factor Score (pentagonal structure model),"32 mg QD, Week 12 DB",−3.07
same,Change from Baseline LS Mean: PANSS Total Score,"32 mg QD, Week 12 DB",−3.66
same,Effect Size vs Placebo: 3-Factor General Psychopathology Subscale Score,"32 mg QD, Week 12 DB",0.23
same,Effect Size vs Placebo: 3-Factor Negative Subscale Score,"32 mg QD, Week 12 DB",0.54
same,Effect Size vs Placebo: 3-Factor Positive Subscale Score,"32 mg QD, Week 12 DB",0.16
same,Effect Size vs Placebo: 5-Factor Activation Score (PSM),"32 mg QD, Week 12 DB",0.44
same,Effect Size vs Placebo: 5-Factor Autistic Preoccupation Score (PSM),"32 mg QD, Week 12 DB",0.08
same,Effect Size vs Placebo: 5-Factor Dysphoric Mood Score (PSM),"32 mg QD, Week 12 DB",0.11
same,Effect Size vs Placebo: 5-Factor Positive Score (PSM),"32 mg QD, Week 12 DB",−0.13
same,Effect Size vs Placebo: NSFS (post-hoc),"32 mg QD, Week 12 DB",0.61
same,Effect Size vs Placebo: PANSS Negative Factor Score (pentagonal structure model),"32 mg QD, Week 12 DB",0.45
same,Effect Size vs Placebo: PANSS Total Score,"32 mg QD, Week 12 DB",0.34
same,Effect Size vs Placebo: 20% reduction in NSFS responders,"64 mg QD, Week 12 DB",0.17
same,Effect Size vs Placebo: 30% reduction in NSFS responders,"64 mg QD, Week 12 DB",0.15
same,Number of Patients with 20% reduction in NSFS at Week 12,"64 mg QD, Week 12 DB",18/54
same,Number of Patients with 30% reduction in NSFS at Week 12,"64 mg QD, Week 12 DB",7/54
same,Change from Baseline LS Mean: 3-Factor General Psychopathology Subscale Score,"64 mg QD, Week 12 DB",−2.58
same,Change from Baseline LS Mean: 3-Factor Negative Subscale Score,"64 mg QD, Week 12 DB",−3.82
same,Change from Baseline LS Mean: 3-Factor Positive Subscale Score,"64 mg QD, Week 12 DB",0.36
same,Change from Baseline LS Mean: 5-Factor Activation Score (PSM),"64 mg QD, Week 12 DB",−0.17
same,Change from Baseline LS Mean: 5-Factor Autistic Preoccupation Score (PSM),"64 mg QD, Week 12 DB",−1.21
same,Change from Baseline LS Mean: 5-Factor Dysphoric Mood Score (PSM),"64 mg QD, Week 12 DB",−1.04
same,Change from Baseline LS Mean: 5-Factor Positive Score (PSM),"64 mg QD, Week 12 DB",−0.25
same,Change from Baseline LS Mean: NSFS (post-hoc),"64 mg QD, Week 12 DB",−3.9
same,Change from Baseline LS Mean: PANSS Negative Factor Score (pentagonal structure model),"64 mg QD, Week 12 DB",−3.50
same,Change from Baseline LS Mean: PANSS Total Score,"64 mg QD, Week 12 DB",−5.83
same,Effect Size vs Placebo: 3-Factor General Psychopathology Subscale Score,"64 mg QD, Week 12 DB",0.56
same,Effect Size vs Placebo: 3-Factor Negative Subscale Score,"64 mg QD, Week 12 DB",0.70
same,Effect Size vs Placebo: 3-Factor Positive Subscale Score,"64 mg QD, Week 12 DB",0.20
same,Effect Size vs Placebo: 5-Factor Activation Score (PSM),"64 mg QD, Week 12 DB",0.49
same,Effect Size vs Placebo: 5-Factor Autistic Preoccupation Score (PSM),"64 mg QD, Week 12 DB",0.22
same,Effect Size vs Placebo: 5-Factor Dysphoric Mood Score (PSM),"64 mg QD, Week 12 DB",0.43
same,Effect Size vs Placebo: 5-Factor Positive Score (PSM),"64 mg QD, Week 12 DB",0.24
same,Effect Size vs Placebo: NSFS (post-hoc),"64 mg QD, Week 12 DB",0.78
same,Effect Size vs Placebo: PANSS Negative Factor Score (pentagonal structure model),"64 mg QD, Week 12 DB",0.57
same,Effect Size vs Placebo: PANSS Total Score,"64 mg QD, Week 12 DB",0.57
same,"PANSS PSM negative factor score, course in OL period",OL period (placebo crossed over) and whole study,trend of improvement continued
